Here are results for 8 compounds from PubChem BioAssay (NCI).

Each structure is given as a SMILES string.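 Assay format: 96-well plates, 48-hour exposure. GI50: concentration for 50% inhibition of growth. TGI: concentration producing complete growth inhibition.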 Bounds are passed on as bounds.

Some test systems named below: LOX IMVI melanoma; NCI-H522 lung; NCI/ADR-RES ovarian; SK-MEL-28 melanoma; UACC-257 melanoma; SF-268 CNS; 786-0 renal; CAKI-1 renal; M14 melanoma; PC-3 prostate.
Holding throughout (assay): NCI-60 cell line screen, 48 h

With `COc1cc[nH]c1/C=C1\C(=O)Nc2ccccc21`, the GI50 in the assay on LOX IMVI melanoma is 7.68 µM; in the assay with NCI-H522 lung, 12.7 µM; in the assay on NCI/ADR-RES ovarian, 15.5 µM; in the assay on SK-MEL-28 melanoma, 16 µM; in the assay with UACC-257 melanoma, 17.3 µM; in the assay with SF-268 CNS it was 11.2 µM. The GI50 with 786-0 renal was 15.9 µM; with CAKI-1 renal, 1.04 µM; in the assay on M14 melanoma, 4.98 µM; in the assay with PC-3 prostate it was 8.78 µM. The TGI in the assay with LOX IMVI melanoma, in the assay with NCI-H522 lung, in the assay with NCI/ADR-RES ovarian, with SK-MEL-28 melanoma, in the assay with UACC-257 melanoma and in the assay with SF-268 CNS was greater than 25 µM each time. Further, the TGI in the assay with 786-0 renal was greater than 25 µM; in the assay with CAKI-1 renal, greater than 11.5 µM; in the assay with M14 melanoma, greater than 25 µM; with PC-3 prostate, greater than 25 µM.

Consider `CCCCN=C(N)c1ccc(OCCSCCOc2ccc(C(N)=NCCCC)cc2)cc1`, for which the GI50 with LOX IMVI melanoma is 9.46 µM; in the assay with NCI-H522 lung, 2.25 µM; with NCI/ADR-RES ovarian, greater than 100 µM; with SK-MEL-28 melanoma, 20 µM; in the assay with UACC-257 melanoma, 4.4 µM; in the assay with SF-268 CNS it was 5.32 µM. For the same compound, the GI50 with 786-0 renal was greater than 100 µM; in the assay with CAKI-1 renal, greater than 100 µM; in the assay on M14 melanoma, 28.4 µM; with PC-3 prostate, 4.4 µM. For the same compound, the TGI in the assay with LOX IMVI melanoma is greater than 100 µM; in the assay with NCI-H522 lung it was 12.8 µM; in the assay on NCI/ADR-RES ovarian, greater than 100 µM; with SK-MEL-28 melanoma, greater than 100 µM; in the assay on UACC-257 melanoma, 71.8 µM; with SF-268 CNS, greater than 100 µM. The TGI in the assay on 786-0 renal was greater than 100 µM; in the assay with CAKI-1 renal, greater than 100 µM; in the assay on M14 melanoma, greater than 100 µM; in the assay on PC-3 prostate, 98.6 µM.

With `COc1ccc(C(=O)COc2cccc(/C=C3\COc4ccc5ccccc5c4C3=O)c2)cc1`, the GI50 with LOX IMVI melanoma was 5.41 µM; with NCI-H522 lung, 8.13 µM; with NCI/ADR-RES ovarian, 6.14 µM; with SK-MEL-28 melanoma it was 47.8 µM; with UACC-257 melanoma it was 39.7 µM; in the assay with SF-268 CNS it was 7.83 µM. The GI50 was 57.4 µM with 786-0 renal, 8.24 µM in the assay with CAKI-1 renal, 67.8 µM in the assay on M14 melanoma and 3.5 µM in the assay on PC-3 prostate. Moreover, the TGI in the assay with LOX IMVI melanoma, in the assay with NCI-H522 lung, with NCI/ADR-RES ovarian, with SK-MEL-28 melanoma, in the assay on UACC-257 melanoma and in the assay with SF-268 CNS was greater than 100 µM in each case. For the same compound, the TGI in the assay with 786-0 renal is greater than 100 µM; in the assay on CAKI-1 renal it was 78.3 µM; in the assay with M14 melanoma, greater than 100 µM; in the assay on PC-3 prostate, greater than 100 µM.

On to `O=C(CCl)Nc1ccc(Cl)cc1`, for which the GI50 in the assay with LOX IMVI melanoma is 1.56 µM; with NCI-H522 lung, 1.48 µM; in the assay on NCI/ADR-RES ovarian, 2.8 µM; in the assay on SK-MEL-28 melanoma it was 9.31 µM; in the assay with UACC-257 melanoma, 10.4 µM; in the assay on SF-268 CNS, 2.72 µM. The GI50 in the assay on 786-0 renal was 4.64 µM; with CAKI-1 renal, 1.59 µM; in the assay with M14 melanoma, 4.45 µM; in the assay with PC-3 prostate it was 7.36 µM. For the same compound, the TGI amounted to 4.23 µM in the assay on LOX IMVI melanoma; 3.01 µM in the assay with NCI-H522 lung; 8.96 µM in the assay with NCI/ADR-RES ovarian; 22.1 µM with SK-MEL-28 melanoma; 27.1 µM in the assay on UACC-257 melanoma; 7.66 µM in the assay with SF-268 CNS. The TGI came to 19.5 µM in the assay on 786-0 renal, 3.31 µM in the assay on CAKI-1 renal, 17 µM with M14 melanoma and 23.7 µM with PC-3 prostate.

As to `CCOC(=O)c1c(CN2CCN(c3ccccc3)CC2)n(-c2ccccc2)c2cc(Br)c(O)cc12`, the GI50 in the assay on LOX IMVI melanoma is 3.1 µM; in the assay on NCI-H522 lung, 16.1 µM; in the assay with NCI/ADR-RES ovarian it was 12.4 µM; with SK-MEL-28 melanoma, 16.6 µM; in the assay on UACC-257 melanoma it was 18.2 µM; with SF-268 CNS, 9.63 µM. Also, the GI50 in the assay with 786-0 renal was 5.23 µM; in the assay on CAKI-1 renal, 15.3 µM; with M14 melanoma it was 15 µM; in the assay on PC-3 prostate, 3.21 µM. For the same compound, the TGI was found to be 11.1 µM in the assay on LOX IMVI melanoma; 44.5 µM with NCI-H522 lung; 41.7 µM in the assay with NCI/ADR-RES ovarian; 42.1 µM in the assay with SK-MEL-28 melanoma; 50.9 µM in the assay on UACC-257 melanoma; 41.4 µM in the assay on SF-268 CNS. The TGI with 786-0 renal was 21.5 µM; with CAKI-1 renal it was 36.9 µM; with M14 melanoma, 41.6 µM; with PC-3 prostate, 13.3 µM.

Turning to `C[N+](C)(C)CC1CCCC(C[N+](C)(C)C)C1=O` (stereo not given), the TGI amounted to 3.09 µM with LOX IMVI melanoma; 53.2 µM with NCI-H522 lung; 7.27 µM with NCI/ADR-RES ovarian; 3.75 µM in the assay on SK-MEL-28 melanoma; 1.48 µM in the assay on UACC-257 melanoma; 55.9 µM in the assay with SF-268 CNS. For the same compound, the TGI in the assay with 786-0 renal came to 2.38 µM; in the assay with CAKI-1 renal, 1.48 µM; in the assay with M14 melanoma, 2.37 µM; in the assay on PC-3 prostate it was 10.3 µM.

Take `c1ccc(C2=NNC3c4ccccc4-c4ccccc4N3C2)cc1` (stereo not given): the TGI was greater than 100 µM in the assay on LOX IMVI melanoma; 80.3 µM in the assay on NCI-H522 lung; greater than 100 µM in the assay on NCI/ADR-RES ovarian; greater than 100 µM in the assay on SK-MEL-28 melanoma; 61.6 µM in the assay with UACC-257 melanoma; greater than 100 µM in the assay on SF-268 CNS. Also, the TGI is greater than 100 µM in the assay on 786-0 renal, greater than 100 µM with CAKI-1 renal, greater than 100 µM with M14 melanoma and 65.5 µM in the assay on PC-3 prostate.

For the compound `COc1cc2oc(-c3ccc(O)cc3)cc(=O)c2c(OC)c1OC`, the TGI with LOX IMVI melanoma, in the assay on NCI-H522 lung, in the assay on NCI/ADR-RES ovarian, with SK-MEL-28 melanoma, with UACC-257 melanoma and in the assay on SF-268 CNS was greater than 100 µM each time. Moreover, the TGI in the assay on 786-0 renal, with CAKI-1 renal, with M14 melanoma and with PC-3 prostate was greater than 100 µM in each case.
